pIC50, pKi: −log10 of the molar value. Counter-ions that a name gives are not always drawn. Like-named read-outs stand apart in the source and are kept apart here.
Key:
[1] = target: T1, human 5-HT1A receptors (Homo sapiens, UniProt P08908); assay: [3H] 8-OHDPAT displacement from 5-HT1A receptor in transfected CHO cells; format: binding
T1 construct: expressed in transfected cells; host or cells: CHO cells
T1 sequence (P08908 1-422): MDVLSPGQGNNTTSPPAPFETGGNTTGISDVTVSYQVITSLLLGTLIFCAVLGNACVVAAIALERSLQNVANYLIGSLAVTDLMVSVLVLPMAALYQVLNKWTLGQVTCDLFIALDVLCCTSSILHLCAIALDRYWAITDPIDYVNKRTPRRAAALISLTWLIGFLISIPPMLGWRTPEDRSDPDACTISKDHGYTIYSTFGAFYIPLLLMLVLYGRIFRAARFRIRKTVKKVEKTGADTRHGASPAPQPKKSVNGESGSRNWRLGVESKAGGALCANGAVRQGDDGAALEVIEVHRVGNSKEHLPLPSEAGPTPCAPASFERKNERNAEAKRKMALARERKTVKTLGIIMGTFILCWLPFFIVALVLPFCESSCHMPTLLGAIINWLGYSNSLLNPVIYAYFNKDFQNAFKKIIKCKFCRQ
Excerpt: High affinity for the serotonin 5-HT1A receptor was established by testing the claimed compound's ability to displace [^3H] 8-OHDPAT (dipropylaminotetralin) from the 5-HT1A serotonin receptor following a modification of the procedure of Hall et al., J. Neurochem. 44, 1685 (1985) which utilizes CHO cells stably transfected with human 5-HT1A receptors.

[2] = target: T2, serotonin transporter (Rattus norvegicus, UniProt P31652); assay: 3H-paroxetine displacement from rat frontal cortical membranes (serotonin transporter affinity); format: binding
T2 construct: displace ^3H-paroxetine from male rat frontal cortical membranes; from tissue; host or cells: male rat frontal cortex membranes

[3] = target: T3, cloned human 5-HT1A receptors (Homo sapiens, UniProt P08908); assay: 35S-GTPγS binding assay for antagonist activity at 5-HT1A receptors; format: biochemical; conditions: membranes with cloned human 5-HT1A receptors, reversal of agonist 8-OHDPAT; for Emax: read-out: 5-HT1A Function (Imax), maximum inhibitory effect; for pIC50: read-out: 5-HT1A Function IC50
T3 construct: expressed in transfected cells
T3 sequence (P08908 1-422): T1 sequence (P08908 1-422)
Procedure: Antagonist activity at 5-HT1A receptors was established by using a ^35S-GTPγS binding assay similar to that used by Lazareno and Birdsall (Br. J. Pharmacol. 109: 1120, 1993), in which the test compound's ability to affect the binding of ^35S-GTPγS to membranes containing cloned human 5-HT1A receptors was determined. Agonists produce an increase in binding whereas antagonists produce no increase but rather reverse the effects of the standard agonist 8-OHDPAT. The test compound's maximum inhibitory effect is represented as the Imax, while its potency is defined by the IC50.

[4] = displacement of [3H] 8-OHDPAT, CHO cells stably transfected with human 5-HT1A receptors, read-out: 5-HT1A Receptor Affinity KI
[5] = displacement of 3H-paroxetine, male rat frontal cortical membranes, read-out: 5-HT Transporter Affinity KI

T2 sequence (P31652 whole entry): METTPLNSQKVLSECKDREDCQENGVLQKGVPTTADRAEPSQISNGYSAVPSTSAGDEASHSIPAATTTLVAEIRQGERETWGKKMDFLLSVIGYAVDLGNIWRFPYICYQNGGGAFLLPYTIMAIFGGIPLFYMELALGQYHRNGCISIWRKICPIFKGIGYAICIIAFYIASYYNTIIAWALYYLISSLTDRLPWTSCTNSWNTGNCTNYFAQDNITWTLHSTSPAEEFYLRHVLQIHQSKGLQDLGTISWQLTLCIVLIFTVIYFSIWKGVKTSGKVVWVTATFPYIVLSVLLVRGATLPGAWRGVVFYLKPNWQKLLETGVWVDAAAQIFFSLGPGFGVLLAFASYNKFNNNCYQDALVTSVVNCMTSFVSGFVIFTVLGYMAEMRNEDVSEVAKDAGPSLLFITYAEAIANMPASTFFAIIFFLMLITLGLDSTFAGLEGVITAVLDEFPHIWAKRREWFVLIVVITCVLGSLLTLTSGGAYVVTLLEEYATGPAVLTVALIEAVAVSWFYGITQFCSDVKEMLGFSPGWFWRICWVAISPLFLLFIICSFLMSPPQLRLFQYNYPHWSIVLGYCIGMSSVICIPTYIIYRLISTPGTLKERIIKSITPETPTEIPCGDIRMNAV

In the case of `Cc1ccc2c3c(ccc2n1)OCC(CN1CC=C(c2csc4ccccc24)CC1)O3` (stereo not shown) (as salt: oxalate) [Example 1, 2-(4-Benzo[b]thiophen-3-yl-3,6-dihydro-2H-pyridin-1-ylmethyl)-8-methyl-2,3-dihydro-[1,4]dioxino[2,3-f]quinoline], the melting point was 129 to 133 °C.
In the case of `Cc1ccc2c3c(ccc2n1)OCC(CN1CC=C(c2csc4ccc(F)cc24)CC1)O3` (stereo not shown) (as salt: oxalate) [Example 3, 2-[4-(5-Fluoro-benzo[b]thiophen-3-yl)-3,6-dihydro-2H-pyridin-1-ylmethyl]-8-methyl-2,3-dihydro-[1,4]dioxino[2,3-f]quinoline], the melting point was 197 to 201 °C.
`Fc1ccc2scc(C3=CCN(CC4COc5ccc6ncccc6c5O4)CC3)c2c1` (stereo not shown) (as salt: oxalate) [Example 5, 2-[4-(5-Fluoro-benzo[b]thiophen-3-yl)-3,6-dihydro-2H-pyridin-1-ylmethyl]-2,3-dihydro-[1,4]dioxino[2,3-f]quinoline] gave a melting point of 183 to 185 °C.
`C1=C(c2csc3ccccc23)CCN(CC2COc3ccc4ncccc4c3O2)C1` (stereo not shown) (as salt: oxalate) [Example 6, 2-(4-Benzo[b]thiophen-3-yl-3,6-dihydro-2H-pyridin-1-ylmethyl)-2,3-dihydro-[1,4]dioxino[2,3-f]quinoline] gave a melting point of 178 to 180 °C.
`Cc1nc2ccc3c(c2o1)OC(CN1CC=C(c2csc4ccccc24)CC1)CO3` (stereo not shown) (as salt: oxalate) [Example 9, 8-(4-Benzo[b]thiophen-3-yl-3,6-dihydro-2H-pyridin-1-ylmethyl)-2-methyl-7,8-dihydro-[1,4]dioxino[2,3-g][1,3]benzoxazole] showed a melting point of 126 to 129 °C.
Work on `Cc1ccc2c3c(ccc2n1)OCC(CN1CC=C(c2cccc4ccsc24)CC1)O3` (stereo not shown) (as salt: oxalate) [Example 10, 2-(4-Benzo[b]thiophen-7-yl-3,6-dihydro-2H-pyridin-1-ylmethyl)-8-methyl-2,3-dihydro-[1,4]dioxino[2,3-f]quinoline] yielded a melting point of 183 to 185 °C.
`Cc1ccc2c3c(ccc2n1)OCC(CN1CC=C(c2csc4ccccc24)CC1)O3` (stereo not shown) [Example 1, 2-(4-Benzo[b]thiophen-3-yl-3,6-dihydro-2H-pyridin-1-ylmethyl)-8-methyl-2,3-dihydro-[1,4]dioxino[2,3-f]quinoline] showed a pKi [1] of 8.31, a pKi [2] of 8.03 and an Emax [3] of 100%. The pIC50 [3] was 6.30.
Compound `Cc1ccc2c3c(ccc2n1)OCC(CN1CC=C(c2cc4ccccc4s2)CC1)O3` (stereo not shown) [Example 2, 2-(4-Benzo[b]thiophen-2-yl-3,6-dihydro-2H-pyridin-1-ylmethyl)-8-methyl-2,3-dihydro-[1,4]dioxino[2,3-f]quinoline] has a pKi [1, 4] of 7.67, a melting point of 174 to 176 °C and a pKi [2] of 7.11.
`Cc1ccc2c3c(ccc2n1)OCC(CN1CC=C(c2csc4ccc(F)cc24)CC1)O3` (stereo not shown) [Example 3, 2-[4-(5-Fluoro-benzo[b]thiophen-3-yl)-3,6-dihydro-2H-pyridin-1-ylmethyl]-8-methyl-2,3-dihydro-[1,4]dioxino[2,3-f]quinoline] showed a pKi [1] of 7.80, a pKi [2] of 7.73 and an Emax [3] of 87.4%. The pIC50 [3] was 6.36.
Compound `COc1cccc2c(C3=CCN(C[C@H]4COc5ccc6nc(C)ccc6c5O4)CC3)coc12` [Example 4, 2-[4-(7-Methoxy-benzofuran-3-yl)-3,6-dihydro-2H-pyridin-1-ylmethyl]-8-methyl-2,3-dihydro-[1,4]dioxino[2,3-f]guinoline] has a pKi [1] of 8.58, a pKi [2] of 7.15 and an Emax [3] of 91%. The pIC50 [3] was 6.78.
Work on `Fc1ccc2scc(C3=CCN(CC4COc5ccc6ncccc6c5O4)CC3)c2c1` (stereo not shown) [Example 5, 2-[4-(5-Fluoro-benzo[b]thiophen-3-yl)-3,6-dihydro-2H-pyridin-1-ylmethyl]-2,3-dihydro-[1,4]dioxino[2,3-f]quinoline] yielded a pKi [1] of 7.63, a pKi [2] of 7.46 and an Emax [3] of 30%. For the same compound, the pIC50 [3] was 6.00.
For `C1=C(c2csc3ccccc23)CCN(CC2COc3ccc4ncccc4c3O2)C1` (stereo not shown) [Example 6, 2-(4-Benzo[b]thiophen-3-yl-3,6-dihydro-2H-pyridin-1-ylmethyl)-2,3-dihydro-[1,4]dioxino[2,3-f]quinoline], the pKi [1] was 7.84, the pKi [2] was 8.07 and the Emax [3] was 100%. The pIC50 [3] was 6.84.
With `C1=C(c2csc3ccccc23)CCN(CC2COc3ccc4[nH]ccc4c3O2)C1` (stereo not shown) [Example 7, 2-(4-Benzo[b]thiophen-3-yl-3,6-dihydro-2H-pyridin-1-ylmethyl)-2,3-dihydro-7H-[1,4]dioxino[2,3-e]indole] the pKi [1] was 8.32, the pKi [2] was 8.61 and the Emax [3] was 100%. It also gave a pIC50 [3] of 7.59.
`Fc1ccc2scc(C3=CCN(C[C@H]4COc5ccc6[nH]ccc6c5O4)CC3)c2c1` [Example 8, 2-[4-(5-Fluoro-benzo[b]thiophen-3-yl)-3,6-dihydro-2H-pyridin-1-ylmethyl]-2,3-m-dihydro-7H-[1,4]dioxino[2,3-e]indole] showed a pKi [1] of 8.46, a pKi [2] of 7.48 and an Emax [3] of 100%. It also gave a pIC50 [3] of 6.83.
`Cc1nc2ccc3c(c2o1)OC(CN1CC=C(c2csc4ccccc24)CC1)CO3` (stereo not shown) [Example 9, 8-(4-Benzo[b]thiophen-3-yl-3,6-dihydro-2H-pyridin-1-ylmethyl)-2-methyl-7,8-dihydro-[1,4]dioxino[2,3-g][1,3]benzoxazole] showed a pKi [1] of 7.69, a pKi [2] of 7.89 and an Emax [3] of 50%. For the same compound, the pIC50 [3] was 5.70.
`Cc1ccc2c3c(ccc2n1)OCC(CN1CC=C(c2cccc4ccsc24)CC1)O3` (stereo not shown) [Example 10, 2-(4-Benzo[b]thiophen-7-yl-3,6-dihydro-2H-pyridin-1-ylmethyl)-8-methyl-2,3-dihydro-[1,4]dioxino[2,3-f]quinoline] gave a pKi [1] of 7.46, a pKi [2] of 8.00 and an Emax [3] of 40.5%. The pIC50 [3] was 6.41.
`Cc1ccc2c3c(ccc2n1)OCC(CN1CC=C(c2cc4ccccc4o2)CC1)O3` (stereo not shown) [Example 11, 2-(4-Benzofuran-2-yl-3,6-dihydro-2H-pyridin-1-ylmethyl)-8-methyl-2,3-dihydro-[1,4]dioxino[2,3-f]quinoline] showed a pKi [1] of 7.80, a melting point of 149 to 150 °C and a pKi [2, 5] of 6.67. The Emax [3] was 70% and the pIC50 [3] was 4.81.
`Cc1ccc2c3c(ccc2n1)OCC(CN1CCC(c2cc4ccccc4o2)CC1)O3` (stereo not shown) [Example 12, 2-(4-Benzofuran-2-yl-piperidin-1-ylmethyl)-8-methyl-2,3-dihydro-[1,4]dioxino[2,3-f]quinoline] gave a pKi [1, 4] of 8.06, a melting point of 103 to 104 °C and a pKi [2, 5] of 6.96. It also gave an Emax [3] of 100% and a pIC50 [3] of 6.23.
Compound `Cc1ccc2c3c(ccc2n1)OCC(CN1CC=C(c2csc4ccc(Cl)cc24)CC1)O3` (stereo not shown) [Example 13, 2-[4-(5-Chloro-benzo[b]thiophen-3-yl)-3,6-dihydro-2H-pyridin-1-ylmethyl]-8-methyl-2,3-dihydro-[1,4]dioxino[2,3-f]quinoline] has a pKi [1, 4] of 6.87, a pKi [2] of 7.03 and an Emax [3] of 100%. It also gave a pIC50 [3] of 5.60.
Work on `Cc1ccc2c3c(ccc2n1)OCC(CN1CCC(c2nc4ccccc4o2)CC1)O3` (stereo not shown) [Example 14, 2-(4-Benzoxazol-2-yl-piperidin-1-ylmethyl)-8-methyl-2,3-dihydro-[1,4]dioxino[2,3-f]quinoline] yielded a pKi [1, 4] of 7.70, a melting point of 128 to 130 °C and a pKi [2, 5] of 7.77. For the same compound, the Emax [3] was 100% and the pIC50 [3] was 6.78.

— patent publication US7479500B2, “Antidepressant piperidine derivatives of heterocyclefused benzodioxans” (Wyeth, priority 2002, dated 2009)
